In ChEMBL document CHEMBL1154949, “2-Amino-aryl-7-aryl-benzoxazoles as potent, selective and orally available JAK2 inhibitors” (Bioorg Med Chem Lett, 2010):

Key:
[1] = target: Tyrosine-protein kinase JAK2 (Homo sapiens, UniProt O60674); test: Inhibition of GST-tagged JAK2 assessed as inhibition of biotinylated JAK3tide peptide phosphorylation after 60 mins by caliper mobility shift assay
[2] = target: T1, Tyrosine-protein kinase JAK3 (Homo sapiens, UniProt P52333); test: Inhibition of GST-tagged JAK3 assessed as inhibition of biotinylated JAK3tide peptide phosphorylation after 60 mins by caliper mobility shift assay
T1 sequence (P52333 whole entry): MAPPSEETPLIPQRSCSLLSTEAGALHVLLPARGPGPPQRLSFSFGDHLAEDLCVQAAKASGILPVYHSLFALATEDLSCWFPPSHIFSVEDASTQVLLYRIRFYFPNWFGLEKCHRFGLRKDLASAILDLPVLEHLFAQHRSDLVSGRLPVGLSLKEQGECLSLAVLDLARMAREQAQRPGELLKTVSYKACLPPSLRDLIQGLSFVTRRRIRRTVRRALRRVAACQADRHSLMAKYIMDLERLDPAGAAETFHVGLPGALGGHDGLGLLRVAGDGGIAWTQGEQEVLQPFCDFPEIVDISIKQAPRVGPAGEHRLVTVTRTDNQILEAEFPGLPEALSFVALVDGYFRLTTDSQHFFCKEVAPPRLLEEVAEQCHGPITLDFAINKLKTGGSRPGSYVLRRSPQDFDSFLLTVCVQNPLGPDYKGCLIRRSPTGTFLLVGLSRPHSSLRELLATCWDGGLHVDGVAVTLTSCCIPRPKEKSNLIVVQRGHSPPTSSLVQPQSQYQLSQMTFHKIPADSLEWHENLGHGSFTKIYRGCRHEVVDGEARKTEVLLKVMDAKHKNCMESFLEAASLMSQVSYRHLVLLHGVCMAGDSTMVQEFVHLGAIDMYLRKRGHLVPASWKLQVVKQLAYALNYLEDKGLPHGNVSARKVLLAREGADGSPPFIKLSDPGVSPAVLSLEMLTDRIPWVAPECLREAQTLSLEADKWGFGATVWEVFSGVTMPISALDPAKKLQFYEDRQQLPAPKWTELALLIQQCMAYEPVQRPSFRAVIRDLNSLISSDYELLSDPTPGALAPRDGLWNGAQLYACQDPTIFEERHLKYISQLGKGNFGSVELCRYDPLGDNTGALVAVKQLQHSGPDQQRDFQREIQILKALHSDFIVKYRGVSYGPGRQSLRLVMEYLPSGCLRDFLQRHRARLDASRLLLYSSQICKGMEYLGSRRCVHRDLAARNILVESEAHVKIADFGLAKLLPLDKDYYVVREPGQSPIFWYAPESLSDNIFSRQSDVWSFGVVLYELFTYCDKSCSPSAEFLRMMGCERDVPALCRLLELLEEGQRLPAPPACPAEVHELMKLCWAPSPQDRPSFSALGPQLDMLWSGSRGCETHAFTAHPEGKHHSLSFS

[3] = Antiproliferative activity against human SET2 cells harboring JAK2 V617F mutant after 72 hrs by […]; type: functional; settings: SET-2, 72 h
[4] = target: Tyrosine-protein kinase JAK1 (Homo sapiens, UniProt P23458); test: Inhibition of GST-tagged JAK1 assessed as inhibition of biotinylated IRS1 substrate phosphorylation after 60 mins by caliper mobility shift assay
[5] = target: Non-receptor tyrosine-protein kinase TYK2 (Homo sapiens, UniProt P29597); test: Inhibition of GST-tagged TYK2 assessed as inhibition of biotinylated IRS1 substrate phosphorylation after 60 mins by caliper mobility shift assay
[6] = Oral bioavailability in rat at 2.5 ml/kg; type: ADME, organism-based; settings: in vivo
[7] = Volume of distribution at steady state in rat at 0.5 ml/kg, iv; type: ADME, organism-based; settings: in vivo, read-out: Vdss
[8] = Terminal half life in rat at 0.5 ml/kg, iv; type: ADME, organism-based; settings: in vivo
Rattus norvegicus [9] = test: Dose normalized AUC in rat at 1 mg/kg, iv; type: ADME, organism-based; parameters: dose 1 mg/kg, route intravenous; settings: in vivo
[10] = Clearance in rat at 0.5 ml/kg, iv; type: ADME, organism-based; settings: in vivo
[11] = Tmax in rat at 2.5 ml/kg, po; type: ADME, organism-based; settings: in vivo
[12] = Cmax in rat at 2.5 ml/kg, po; type: ADME, organism-based; parameters: dose 2.5 ml/kg, route oral; settings: in vivo
Rattus norvegicus [13] = test: Dose normalized AUC in rat at 1 mg/kg, po; type: ADME, organism-based; parameters: dose 1 mg/kg, route oral; settings: in vivo

Sequence of Tyrosine-protein kinase JAK2 (O60674 whole entry): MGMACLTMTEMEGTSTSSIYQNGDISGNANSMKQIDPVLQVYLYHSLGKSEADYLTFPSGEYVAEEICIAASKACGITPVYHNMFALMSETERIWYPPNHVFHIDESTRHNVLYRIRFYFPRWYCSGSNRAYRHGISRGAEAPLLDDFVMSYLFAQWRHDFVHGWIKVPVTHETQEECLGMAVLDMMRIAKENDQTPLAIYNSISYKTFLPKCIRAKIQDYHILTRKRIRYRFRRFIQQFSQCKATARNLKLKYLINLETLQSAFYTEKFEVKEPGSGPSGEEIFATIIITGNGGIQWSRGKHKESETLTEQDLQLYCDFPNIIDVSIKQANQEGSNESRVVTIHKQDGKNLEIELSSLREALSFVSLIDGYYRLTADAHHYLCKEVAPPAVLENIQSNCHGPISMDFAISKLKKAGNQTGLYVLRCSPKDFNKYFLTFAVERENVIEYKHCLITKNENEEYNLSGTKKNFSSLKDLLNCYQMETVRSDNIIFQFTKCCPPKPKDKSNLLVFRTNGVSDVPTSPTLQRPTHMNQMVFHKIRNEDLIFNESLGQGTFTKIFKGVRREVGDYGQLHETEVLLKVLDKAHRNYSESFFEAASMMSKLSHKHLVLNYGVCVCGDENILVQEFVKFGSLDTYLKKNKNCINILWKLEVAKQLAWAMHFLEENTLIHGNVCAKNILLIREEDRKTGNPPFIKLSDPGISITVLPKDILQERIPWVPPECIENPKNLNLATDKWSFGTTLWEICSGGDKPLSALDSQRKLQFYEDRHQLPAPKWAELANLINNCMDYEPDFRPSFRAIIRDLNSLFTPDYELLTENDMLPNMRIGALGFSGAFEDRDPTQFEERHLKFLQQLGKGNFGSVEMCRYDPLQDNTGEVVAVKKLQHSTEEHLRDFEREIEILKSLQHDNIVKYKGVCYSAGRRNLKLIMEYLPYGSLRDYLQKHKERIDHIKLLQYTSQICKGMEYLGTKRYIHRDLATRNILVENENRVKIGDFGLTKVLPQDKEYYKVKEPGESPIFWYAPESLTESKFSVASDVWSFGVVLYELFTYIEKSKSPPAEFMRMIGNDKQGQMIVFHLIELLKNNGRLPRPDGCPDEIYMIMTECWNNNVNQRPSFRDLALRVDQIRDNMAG
Sequence of Tyrosine-protein kinase JAK1 (P23458 whole entry): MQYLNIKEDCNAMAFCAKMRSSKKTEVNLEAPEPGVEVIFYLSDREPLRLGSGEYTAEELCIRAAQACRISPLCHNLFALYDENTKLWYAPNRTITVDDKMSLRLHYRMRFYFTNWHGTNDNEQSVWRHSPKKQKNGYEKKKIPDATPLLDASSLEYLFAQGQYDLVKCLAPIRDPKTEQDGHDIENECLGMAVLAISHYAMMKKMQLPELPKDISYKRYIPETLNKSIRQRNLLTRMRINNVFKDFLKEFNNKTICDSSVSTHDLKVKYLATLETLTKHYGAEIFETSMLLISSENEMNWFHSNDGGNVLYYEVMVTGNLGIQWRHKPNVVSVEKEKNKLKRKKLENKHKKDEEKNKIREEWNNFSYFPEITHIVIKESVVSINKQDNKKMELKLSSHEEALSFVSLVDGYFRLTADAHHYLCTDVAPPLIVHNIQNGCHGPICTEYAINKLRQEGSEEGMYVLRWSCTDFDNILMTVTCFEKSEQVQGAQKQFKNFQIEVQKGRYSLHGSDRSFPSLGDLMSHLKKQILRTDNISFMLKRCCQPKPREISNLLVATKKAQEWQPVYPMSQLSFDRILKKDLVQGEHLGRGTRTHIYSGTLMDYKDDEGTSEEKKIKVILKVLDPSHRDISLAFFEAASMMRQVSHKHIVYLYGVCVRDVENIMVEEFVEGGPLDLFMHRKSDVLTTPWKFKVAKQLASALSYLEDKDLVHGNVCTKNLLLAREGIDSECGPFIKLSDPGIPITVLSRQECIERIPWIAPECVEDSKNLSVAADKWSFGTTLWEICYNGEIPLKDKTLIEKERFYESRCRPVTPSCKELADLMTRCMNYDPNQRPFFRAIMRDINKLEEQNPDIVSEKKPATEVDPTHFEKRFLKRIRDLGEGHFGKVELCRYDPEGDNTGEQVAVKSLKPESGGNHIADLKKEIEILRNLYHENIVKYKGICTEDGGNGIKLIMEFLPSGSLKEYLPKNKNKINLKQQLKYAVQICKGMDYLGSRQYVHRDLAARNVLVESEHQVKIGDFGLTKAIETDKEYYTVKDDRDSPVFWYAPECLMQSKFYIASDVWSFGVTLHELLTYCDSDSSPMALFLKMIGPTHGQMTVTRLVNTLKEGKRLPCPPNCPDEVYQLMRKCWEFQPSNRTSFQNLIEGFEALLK
Sequence of Non-receptor tyrosine-protein kinase TYK2 (P29597 whole entry): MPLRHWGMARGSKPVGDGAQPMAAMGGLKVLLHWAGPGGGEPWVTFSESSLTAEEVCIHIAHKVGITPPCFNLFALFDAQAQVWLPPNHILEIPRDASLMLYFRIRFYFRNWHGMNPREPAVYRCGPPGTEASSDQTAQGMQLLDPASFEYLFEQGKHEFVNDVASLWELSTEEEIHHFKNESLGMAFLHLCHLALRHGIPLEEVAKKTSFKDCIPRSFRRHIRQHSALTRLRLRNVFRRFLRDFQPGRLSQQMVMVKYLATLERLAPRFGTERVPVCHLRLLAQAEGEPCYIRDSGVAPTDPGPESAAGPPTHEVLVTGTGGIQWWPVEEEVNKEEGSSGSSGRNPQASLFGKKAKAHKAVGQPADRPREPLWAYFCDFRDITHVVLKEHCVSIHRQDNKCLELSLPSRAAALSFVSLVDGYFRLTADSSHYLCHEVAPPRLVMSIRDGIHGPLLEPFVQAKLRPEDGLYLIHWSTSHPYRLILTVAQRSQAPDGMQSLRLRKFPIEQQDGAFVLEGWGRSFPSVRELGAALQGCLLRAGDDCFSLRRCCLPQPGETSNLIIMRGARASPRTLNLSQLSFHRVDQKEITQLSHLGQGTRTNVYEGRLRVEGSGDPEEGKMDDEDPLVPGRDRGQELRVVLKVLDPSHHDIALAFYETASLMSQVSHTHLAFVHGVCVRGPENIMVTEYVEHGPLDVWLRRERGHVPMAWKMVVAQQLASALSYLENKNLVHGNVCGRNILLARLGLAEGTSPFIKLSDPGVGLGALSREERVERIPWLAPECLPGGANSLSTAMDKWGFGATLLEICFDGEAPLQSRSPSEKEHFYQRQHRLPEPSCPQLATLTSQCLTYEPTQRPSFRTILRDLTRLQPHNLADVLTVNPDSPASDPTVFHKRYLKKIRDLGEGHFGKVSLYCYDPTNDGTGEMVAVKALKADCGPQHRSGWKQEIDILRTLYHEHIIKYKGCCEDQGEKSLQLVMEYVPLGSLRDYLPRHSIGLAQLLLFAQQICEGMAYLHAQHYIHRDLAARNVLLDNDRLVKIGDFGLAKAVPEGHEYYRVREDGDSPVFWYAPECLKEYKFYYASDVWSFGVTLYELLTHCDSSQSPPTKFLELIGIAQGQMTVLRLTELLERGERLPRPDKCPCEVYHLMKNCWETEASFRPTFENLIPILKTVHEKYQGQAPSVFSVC

| SMILES | IC50 [1] [nM] | IC50 [2] [nM] | GI50 [3] [nM] | IC50 [4] [nM] | IC50 [5] [nM] | bioavailability [6] [%] | Vd [7] [L/kg] | half-life [8] [min] | AUC (Rattus norvegicus [9]) [nmol·h/L] | clearance [10] [mL/min/kg] | Tmax [11] [h] | Cmax [12] [nM] | AUC (Rattus norvegicus [13]) [nmol·h/L] |
| --- | --- | --- | --- | --- | --- | --- | --- | --- | --- | --- | --- | --- | --- |
| Cc1cc(Nc2nc3cccc(-c4cc(F)c(CN5CCOCC5)c(F)c4)c3o2)ccc1C(=O)NCCCN(C)C | 5 | 220 | 410 | 35 | 97 | – | – | – | – | – | – | – | – |
| Cc1cc(Nc2nc3cccc(-c4cc(F)c(CN5CCOCC5)c(F)c4)c3o2)ccc1C(=O)N(C)C | 5 | 160 | 200 | 140 | 200 | – | – | – | – | – | – | – | – |
| COc1cc(Nc2nc3cccc(-c4ccccc4)c3o2)cc(OC)c1OC | – | > 10000 | – | 710 | 3400 | – | – | – | – | – | – | – | – |
| COc1cc(Nc2nc3cccc(-c4cccc(Cl)c4)c3o2)cc(OC)c1OC | 440 | > 10000 | – | 5300 | > 10000 | – | – | – | – | – | – | – | – |
| COc1ccc(-c2cccc3nc(Nc4cc(OC)c(OC)c(OC)c4)oc23)cc1 | – | > 10000 | – | 8900 | > 10000 | – | – | – | – | – | – | – | – |
| COc1cc(Nc2nc3cccc(-c4ccccn4)c3o2)cc(OC)c1OC | 110 | 450 | – | 760 | 640 | – | – | – | – | – | – | – | – |
| COc1cc(Nc2nc3cccc(-c4ccc(C(=O)N5CCOCC5)c(F)c4)c3o2)cc(OC)c1OC | < 3 | – | 150 | 22 | 63 | – | – | – | – | – | – | – | – |
| COc1cc(Nc2nc3cccc(-c4ccc(CN5CCOCC5)cc4)c3o2)cc(OC)c1OC | – | 300 | 420 | 82 | 310 | – | – | – | – | – | – | – | – |
| CN(C)C(=O)c1ccc(Nc2nc3cccc(-c4ccc(C(=O)N5CCOCC5)cc4)c3o2)cc1 | 39 | 620 | – | 180 | 730 | – | – | – | – | – | – | – | – |
| Cc1cc(Nc2nc3cccc(-c4ccc(C(=O)N5CCOCC5)cc4)c3o2)ccc1C(=O)N(C)C | 8 | – | 490 | 130 | – | – | – | – | – | – | – | – | – |
| COc1cc(Nc2nc3cccc(-c4ccc5ncccc5c4)c3o2)cc(OC)c1OC | 8 | 670 | 500 | 210 | 1400 | – | – | – | – | – | – | – | – |
| COc1cc(Nc2nc3cccc(-c4cccc(NS(C)(=O)=O)c4)c3o2)cc(OC)c1OC | 150 | 2000 | – | 680 | 3600 | – | – | – | – | – | – | – | – |
| COc1cc(Nc2nc3cccc(-c4ccc(NS(C)(=O)=O)cc4)c3o2)cc(OC)c1OC | 5 | 130 | 130 | 47 | 150 | – | – | – | – | – | – | – | – |
| COc1cc(Nc2nc3cccc(-c4ccc(C(=O)N5CCOCC5)cc4)c3o2)cc(OC)c1OC | 8 | 400 | 160 | 27.5 | 110 | – | – | – | – | – | – | – | – |
| CNC(=O)c1ccc(Nc2nc3cccc(-c4cc(F)c(CN5CCOCC5)c(F)c4)c3o2)cc1C | 5 | 190 | 260 | 48 | 120 | 102 | 2.3 | 192 | 2391 | 15 | 3.5 | 242 | 2435 |
| Cc1cc(-c2cccc3nc(Nc4ccc(N5CCN(C)CC5)cc4)oc23)ccc1C(=O)N1CCOCC1 | 8 | 170 | 200 | 67 | 300 | – | – | – | – | – | – | – | – |
